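The compound was tested at five concentrations on cells cultured in 96-well plates, with a 48-hour exposure period. GI50 is the concentration that inhibits growth by half.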 Active and inactive are the calls of the source. Rule as the data show it: active = GI50 up to about 1.1 µM and inactive = higher.
How the values were obtained:
Assay in all cases: NCI-60 cell line screen, 48 h
CAKI-1 = test system: CAKI-1
CCRF-CEM = test system: CCRF-CEM
COLO 205 = test system: COLO 205
EKVX = test system: EKVX
HCT-15 = test system: HCT-15
HT-29 = test system: HT-29
LOX IMVI = test system: LOX IMVI
MCF7 = test system: MCF7
MDA-MB-231 = test system: MDA-MB-231
MDA-N = test system: MDA-N
NCI-H226 = test system: NCI-H226
NCI-H460 = test system: NCI-H460
OVCAR-4 = test system: OVCAR-4
PC-3 = test system: PC-3
SF-295 = test system: SF-295
SF-539 = test system: SF-539
UACC-257 = test system: UACC-257
UACC-62 = test system: UACC-62

SMILES	GI50 (CAKI-1)	GI50 (CCRF-CEM)	GI50 (COLO 205)	GI50 (EKVX)	GI50 (HCT-15) [µM]	GI50 (HT-29)	GI50 (LOX IMVI)	GI50 (MCF7)	GI50 (MDA-MB-231)	GI50 (MDA-N)	GI50 (NCI-H226)	GI50 (NCI-H460)	GI50 (OVCAR-4)	GI50 (PC-3)	GI50 (SF-295)	GI50 (SF-539)	GI50 (UACC-257)	GI50 (UACC-62)
CC(C)C(=O)OCC1CCCN2CCCCC12 (stereo not drawn)	> 100 µM (inactive)	51.3 µM (inactive)	51.1 µM (inactive)	> 100 µM (inactive)	53	30.5 µM (inactive)	82 µM (inactive)	48.1 µM (inactive)	45.4 µM (inactive)	> 100 µM (inactive)	> 100 µM (inactive)	38.7 µM (inactive)	> 100 µM (inactive)	79.4 µM (inactive)	> 100 µM (inactive)	> 100 µM (inactive)	> 100 µM (inactive)	68.1 µM (inactive)
CC(=O)NC(CS/N=N/c1[nH]cnc1C(N)=O)C(=O)O (stereo not drawn)	2.55 µM (inactive)	2.14 µM (inactive)	7.24 µM (inactive)	54.5 µM (inactive)	19.5	> 46.9 µM (inactive)	0.343 µM (active)	> 46.8 µM (inactive)	2.2 µM (inactive)	5.05 µM (inactive)	2.51 µM (inactive)	5.57 µM (inactive)	3.31 µM (inactive)	6.38 µM (inactive)	4.16 µM (inactive)	7.87 µM (inactive)	39.3 µM (inactive)	4.21 µM (inactive)
c1ccc2c(c1)c(N1CCCCC1)cc1nc3c(cc(N4CCCCC4)c4ccccc43)nc12	> 100 µM (inactive)	> 100 µM (inactive)	> 100 µM (inactive)	> 100 µM (inactive)	> 100	> 100 µM (inactive)	> 100 µM (inactive)	> 100 µM (inactive)	> 100 µM (inactive)	> 100 µM (inactive)	> 100 µM (inactive)	> 100 µM (inactive)	> 100 µM (inactive)	> 100 µM (inactive)	> 100 µM (inactive)	> 100 µM (inactive)	> 100 µM (inactive)	> 100 µM (inactive)
O=C1Sc2ccc(Br)cc2C(=O)Sc2ccccc21	14.6 µM (inactive)	2.48 µM (inactive)	13.2 µM (inactive)	8.02 µM (inactive)	15.7	14.3 µM (inactive)	9.1 µM (inactive)	16.4 µM (inactive)	16.5 µM (inactive)	8.17 µM (inactive)	18.5 µM (inactive)	15.8 µM (inactive)	13.2 µM (inactive)	13 µM (inactive)	22.4 µM (inactive)	11.6 µM (inactive)	13.8 µM (inactive)	16.8 µM (inactive)
C/C=C(/C)C(=O)O[C@@H]1CCN2CC[C@H](COC(=O)/C(=C/C)CO)C12 (stereo partly drawn)	> 100 µM (inactive)	37.7 µM (inactive)	20.6 µM (inactive)	> 100 µM (inactive)	> 100	28.7 µM (inactive)	61.8 µM (inactive)	> 100 µM (inactive)	> 100 µM (inactive)	39.2 µM (inactive)	> 100 µM (inactive)	59.6 µM (inactive)	> 100 µM (inactive)	> 100 µM (inactive)	> 89.1 µM (inactive)	84.1 µM (inactive)	> 53.8 µM (inactive)	> 100 µM (inactive)
C#C[C@]1(O)[C@@H](CO)O[C@@H](n2ccc(N)nc2=O)[C@@H]1O	< 0.01 µM (active)	< 0.0109 µM (active)	< 0.0111 µM (active)	0.173 µM (active)	< 0.01	< 0.0149 µM (active)	< 0.01 µM (active)	< 0.01 µM (active)	0.0908 µM (active)	0.0121 µM (active)	0.0308 µM (active)	< 0.01 µM (active)	0.18 µM (active)	0.0352 µM (active)	< 0.0334 µM (active)	0.111 µM (active)	0.111 µM (active)	0.0352 µM (active)
Cc1cc(C)nc(NS(=O)(=O)c2ccc(NNc3c4ccccc4nc4c(C(=O)Nc5ccc(S(N)(=O)=O)cc5)cccc34)cc2)n1	50.1 µM (inactive)	20.2 µM (inactive)	> 100 µM (inactive)	45.2 µM (inactive)	> 100	39.7 µM (inactive)	19.2 µM (inactive)	53.5 µM (inactive)	13.3 µM (inactive)	49.5 µM (inactive)	32 µM (inactive)	37.6 µM (inactive)	49.5 µM (inactive)	18.6 µM (inactive)	54 µM (inactive)	40.7 µM (inactive)	> 100 µM (inactive)	27.7 µM (inactive)
COc1ccc(CNc2nc(NCc3ccc(OC)cc3)nc(NC3CCCCC3)n2)cc1	1.07 µM (active)	2.21 µM (inactive)	1.94 µM (inactive)	2.57 µM (inactive)	2.13	3.46 µM (inactive)	3.13 µM (inactive)	0.112 µM (active)	2.48 µM (inactive)	0.65 µM (active)	1.93 µM (inactive)	2.7 µM (inactive)	10 µM (inactive)	3.21 µM (inactive)	1.34 µM (inactive)	3.01 µM (inactive)	53.8 µM (inactive)	2 µM (inactive)
O=C1OC(C2Cc3ccc4c(c3C2=O)CCC4)c2ccccc21 (stereo not drawn)	> 100 µM (inactive)	46.9 µM (inactive)	20.7 µM (inactive)	51.2 µM (inactive)	39.1	52.8 µM (inactive)	34.9 µM (inactive)	50.1 µM (inactive)	> 100 µM (inactive)	40.3 µM (inactive)	26.1 µM (inactive)	50.9 µM (inactive)	38.1 µM (inactive)	30.5 µM (inactive)	59.6 µM (inactive)	28.2 µM (inactive)	46.8 µM (inactive)	42.2 µM (inactive)
OCC1c2ccccc2-n2nc(-c3ccccc3)c(O)c21 (stereo not drawn)	17.8 µM (inactive)	28.6 µM (inactive)	13.5 µM (inactive)	29.2 µM (inactive)	14.9	30.6 µM (inactive)	20.7 µM (inactive)	14.4 µM (inactive)	29.2 µM (inactive)	46.1 µM (inactive)	79.4 µM (inactive)	29.9 µM (inactive)	26.9 µM (inactive)	17.6 µM (inactive)	38.5 µM (inactive)	43.1 µM (inactive)	47 µM (inactive)	20.7 µM (inactive)
NC(=O)NOCC1NC(=O)NC1=O (stereo not drawn)	> 100 µM (inactive)	4.16 µM (inactive)	> 100 µM (inactive)	> 100 µM (inactive)	> 100	> 100 µM (inactive)	> 100 µM (inactive)	> 100 µM (inactive)	> 100 µM (inactive)	> 100 µM (inactive)	> 100 µM (inactive)	> 100 µM (inactive)	> 100 µM (inactive)	> 100 µM (inactive)	> 100 µM (inactive)	> 100 µM (inactive)	> 100 µM (inactive)	> 100 µM (inactive)
CCOP(=O)(OCC)C(C)(C)N(C)/C(F)=N/C(F)(F)F	> 100 µM (inactive)	> 100 µM (inactive)	> 100 µM (inactive)	> 100 µM (inactive)	> 100	> 100 µM (inactive)	> 100 µM (inactive)	> 100 µM (inactive)	> 100 µM (inactive)	> 100 µM (inactive)	> 100 µM (inactive)	> 100 µM (inactive)	> 100 µM (inactive)	> 100 µM (inactive)	> 100 µM (inactive)	> 100 µM (inactive)	> 100 µM (inactive)	> 100 µM (inactive)
CN(C)c1cccc(-c2cc(=S)c3cc4c(cc3[nH]2)OCO4)c1	11.1 µM (inactive)	4.26 µM (inactive)	14.8 µM (inactive)	7.62 µM (inactive)	4.74	6.24 µM (inactive)	7.73 µM (inactive)	4.94 µM (inactive)	31.9 µM (inactive)	2.83 µM (inactive)	5.7 µM (inactive)	4.59 µM (inactive)	> 100 µM (inactive)	3.61 µM (inactive)	4.6 µM (inactive)	4.27 µM (inactive)	9.25 µM (inactive)	6.27 µM (inactive)
COC(=O)[C@@H]1C=C[C@H](OC2OC(COC(C)=O)C(OC(C)=O)C(OC(C)=O)C2OC(C)=O)n2c(=O)c3ccccc3c(=O)n21 (stereo partly drawn)	3.45 µM (inactive)	4.14 µM (inactive)	8.65 µM (inactive)	16.5 µM (inactive)	10.8	7.21 µM (inactive)	10.9 µM (inactive)	8.61 µM (inactive)	> 10 µM (inactive)	> 10 µM (inactive)	19.7 µM (inactive)	12.3 µM (inactive)	16.6 µM (inactive)	6.62 µM (inactive)	18.8 µM (inactive)	15.7 µM (inactive)	17.2 µM (inactive)	9.93 µM (inactive)
O=C1Cc2c(-c3ccccc3)cc(-c3ccc(Cl)cc3)nc2-c2ccccc2N1	3.91 µM (inactive)	5.97 µM (inactive)	2.96 µM (inactive)	6.92 µM (inactive)	6.68	3.66 µM (inactive)	6.22 µM (inactive)	8.89 µM (inactive)	4.13 µM (inactive)	6.9 µM (inactive)	3.07 µM (inactive)	3.21 µM (inactive)	1.7 µM (inactive)	10.1 µM (inactive)	5.89 µM (inactive)	5.83 µM (inactive)	14.2 µM (inactive)	5.57 µM (inactive)
Clc1ccccc1/C=c1\nc(-c2ccccc2)n2c1nc1ccccc12	68.7 µM (inactive)	> 100 µM (inactive)	> 100 µM (inactive)	13.4 µM (inactive)	> 100	> 100 µM (inactive)	> 100 µM (inactive)	> 100 µM (inactive)	22.8 µM (inactive)	30.6 µM (inactive)	> 100 µM (inactive)	> 100 µM (inactive)	> 100 µM (inactive)	4.66 µM (inactive)	10.7 µM (inactive)	20 µM (inactive)	> 100 µM (inactive)	30.8 µM (inactive)

Source: ChEMBL document CHEMBL1201862, “PubChem BioAssay data set” (2004)
